What was measured:
[1] = vapor pressure at 25° C.; cited from earlier work
[2] = water / 1-octanol; cited from earlier work
[3] = Evaporation cell test: weight loss of volatile compound through coated or uncoated paper; assay type: physicochemical; settings: 23° C., 50% humidity; for Weight loss of volatile compound through uncoated paper V2: uncoated paper V2, no coating
Protocol: The test was carried out according to the method described by Diehl, H. Pfeiffer, A.-M, Seyffer H., (2014), New testing method for functional barriers, International Paperworld IPW 8-11. All tests were carried out in a climate chamber at 23° C. and 50% humidity.
For this, circular specimens were cut from the paper coated with the respective coating. The specimen was placed in the holder of the evaporation cell. A defined amount of the respective volatile compound was filled into the chamber of the evaporation cell, and the chamber was closed by the holder and immediately weighed thereafter to an accuracy of 0.1 mg. The closed evaporation cell was reweighed after 1 h, 4 h, 1 d and 2 d.

[4] = paper 1, Polymer dispersion 1, thickness 10 g/m^2, coverage 50%
[5] = paper 1, Polymer dispersion 2, thickness 10 g/m^2, coverage 50%
[6] = paper 2, Polymer dispersion 1, thickness 15 g/m^2, coverage 30%
[7] = paper 2, Polymer dispersion 2, thickness 5 g/m^2, coverage 70%
[8] = paper V1, Polymer dispersion 1, thickness 10 g/m^2, coverage 100%
[9] = paper V1, Polymer dispersion 2, thickness 10 g/m^2, coverage 100%

SMILES	VP(25° C.) [1] [mbar]	Log Pow [2]	Weight loss of volatile compound through respective coating of paper 1 [3, 4]	Weight loss of volatile compound through respective coating of paper 1 [3, 5]	Weight loss of volatile compound through respective coating of paper 2 [3, 6]	Weight loss of volatile compound through respective coating of paper 2 [3, 7]	Weight loss of volatile compound through respective coating of paper V1 [3, 8]	Weight loss of volatile compound through respective coating of paper V1 [3, 9]	Weight loss of volatile compound through uncoated paper V2 [3]
CC(C)=CCCC(C)CC=O (stereo not drawn) [Citronellal]	0.5	3.8	2 g/(m^2d)	2 g/(m^2d)	5 g/(m^2d)	4 g/(m^2d)	1 g/(m^2d)	1 g/(m^2d)	950 g/(m^2d)
CCOC(C)=O [Ethyl acetate]	7	0.9	1320 g/(m^2d)	1300 g/(m^2d)	3300 g/(m^2d)	653 g/(m^2d)	660 g/(m^2d)	650 g/(m^2d)	2450 g/(m^2d)
CCCCCC=O [Hexanal]	15	1.9	291 g/(m^2d)	702 g/(m^2d)	725 g/(m^2d)	353 g/(m^2d)	145 g/(m^2d)	350 g/(m^2d)	3750 g/(m^2d)
CC(=O)OCCC(C)C [Isoamyl acetate]	5	2.5	120 g/(m^2d)	204 g/(m^2d)	295 g/(m^2d)	103 g/(m^2d)	60 g/(m^2d)	100 g/(m^2d)	2100 g/(m^2d)
CC(=O)OCC(C)C [Isobutyl acetate]	20	1.8	300 g/(m^2d)	320 g/(m^2d)	749 g/(m^2d)	163 g/(m^2d)	150 g/(m^2d)	160 g/(m^2d)	3500 g/(m^2d)
C=C(C)[C@H]1CC=C(C)CC1 [Limonene]	2	4.6	2 g/(m^2d)	100 g/(m^2d)	5 g/(m^2d)	53 g/(m^2d)	1 g/(m^2d)	50 g/(m^2d)	1750 g/(m^2d)
CCCCCCC [n-Heptane]	61	4.8	2 g/(m^2d)	1200 g/(m^2d)	5 g/(m^2d)	603 g/(m^2d)	1 g/(m^2d)	600 g/(m^2d)	4500 g/(m^2d)
CCCCCC [n-Hexane]	201	3.9	4 g/(m^2d)	1900 g/(m^2d)	10 g/(m^2d)	953 g/(m^2d)	2 g/(m^2d)	950 g/(m^2d)	> 4000 g/(m^2d)

From patent US20230044427A1, “EVAPORATION RETARDANT MEMBRANE FOR ODORANT COMPOSITIONS” (BASF SE, priority 2020, published 2023)
